According to patent US20140205566A1, “CYCLIC NUCLEUOSIDE DERIVATIVES AND USES THEREOF” (NOVARTIS AG, priority 2012, published 2014):
Where two headings read alike, the source gives them in different places.

Assays:
[1] = test system: dengue virus; assay: Dengue EC50 determination: PBMC infected with virus/humanized 4G2 antibody complex, plaque reduction assay using BHK cells; type: cell-based; settings: M.O.I of 1, 48 hours, plaque reduction in BHK cells
Protocol: Cryopreserved PBMC (Peripheral Blood Mononuclear Cell) cells were purchased from AllCells, LLC in USA. The cells were then thawed according to manufacturer's instructions and re-suspended in RPMI medium supplemented with 1% penicillin/streptomycin solution and 10% Fetal Calf serum. The cells were then counted and viability checked (viability should be at least 80%). After centrifuging and removing the media, the cells were diluted to 1×10^7 cells/mL in RPMI medium supplemented with 1% penicillin/streptomycin. 50 μl of the cells were then dispensed into 96-well tissue culture plate resulting in 5×10^5 cells/well. Next, virus with humanized 4G2 mixture was prepared for infection. Briefly, virus (2×10^7 pfu/ml) was mixed with humanized 4G2 antibody with the final antibody concentration of 0.38 μg/ml and incubated for 30 minutes at 4° C. to assist virus/antibody complex formation. The virus-antibody complex was then added to the PBMC at multiplicity of infection (M.O.I) of 1. The mixture of cells, virus and antibody was then further incubated in the plates at 37° C. for an hour in the humidified incubator for virus attachment and infection to take place. Serial diluted compounds were then added to the final media volume of 200 μl with 2% Fetal Calf Serum (final PBMC concentration would be 2.5×10^6 cells/mL). The plates were then incubated at 37° C., 5% CO2 for another 48 hours. The extent of the infection and compound inhibition was measured by plaque reduction assay using BHK cells [RD-2004-80036]. Briefly, supernatants of BHK cells grown in 24-well tissue culture (seeded at 200,000 cells/well the night before) were removed and subjected to 200 μl of diluted supernatants derived from PBMC infection containing serial diluted compounds. After incubating it for 37° C. for 1 hour in the incubator, the supernatants were removed and BHK cells overlaid with RPMI media containing 0.8% methyl-cellulose, 0.5% DMSO, 0.05% sodium bicarbonate, 25 mM HEPES, 2% fetal bovine serum and 1% penicillin/streptomycin solution. After additional 4 days of incubation at 37° C. incubator, the monolayer of BHK cells were fixed with 4% paraformaldehyde, stained with crystal violet and plaques counted. The dose response (n=2) is calculated by Prism from Graphpad software using a mathematical curve fitting analysis called nonlinear regression with four independent parameters. Briefly, the software generates the best fit curve using the formula F(x)=((A−D)/(1+((x/C)̂B)))+D. In this formula, x represents the concentration of the compound, A is the minimum value, B represents the steepness of the curve (sometimes known as Hill slope), C is the inflection point and D is the maximum value. EC50 was estimated as the concentration of the compound which will inhibit 50% of the plaque formation. A positive control (7-deaza-2′-C-acetylene-adenosine) was used to ensure the quality of the data.

[2] = CCK8 cytotoxicity assay in HepG2 cells; type: cell-based; settings: human, CCK-8
Protocol: HepG2 cells were trypsinized, washed, counted and diluted to 1.6×10^4 cells/ml in DMEM-W/O Glucose, supplemented with 10% Fetal bovine serum (FBS), 1% Penicillin/Streptomycin, 2 mM HEPES, 1 mM Sodium Pyruvate, 10 mM Galactose & 2 mM Glutamine. 25 μl of the media containing 400 cells per well were dispensed in clear 384-well tissue culture plate and incubated at room temperature for 30 minutes. The plate was then transferred and placed at 37° C., 5% CO2 humidified incubator overnight. On the next day, serial-diluted compound plates were prepared and 125 nl of compounds at various concentrations were then dispensed into the tissue culture well (200× dilution). The plates were then transferred to 37° C., 5% CO2 humidified incubator for additional 96 hours. Cytotoxicity was measured by CCK-8 assay. Briefly, CCK-8 was thawed on bench top and diluted 2.5× with the growth media. 35 ul of the pre-diluted CCK-8 was then introduced into each well and the plates were then further incubated in 37° C., 5% CO2 humidified incubator for 3 hours. The absorbance was read by Envision at 450 nm. Dose response curves were calculated as in the previous section. The CC50 is estimated as the concentration of the compound which will inhibit 50% of the signal. A positive control (puromycin) was used to ensure the quality of the data.

[3] = CCK8 cytotoxicity assay in THP-1 cells; type: cell-based; settings: human, CCK-8
Protocol: 4 day cytotoxicity assay using THP-1 cells: THP-1 cells grown in suspension were counted and diluted to 8×10^4 cells/ml in RPMI-1640 media supplemented with 10% fetal bovine serum (FBS) and 1% penicillin/streptomycin. 25 ul of the THP-1 containing media consisting of 2000 cells were dispensed in 384-well tissue culture plate and pre-incubated at room temperature for 30 minutes, followed by 37° C., 5% CO2 overnight in the humidified incubator. On the next day, serial-diluted compound plates were prepared and 125 nl of compounds at various concentrations were then dispensed into the tissue culture well (200× dilution). The plates were then transferred to 37° C., 5% CO2 humidified incubator for additional 96 hours. Cytotoxicity was measured by CCK-8 assay. Briefly, CCK-8 was thawed on bench top and diluted 2.5× with the growth media. 35 ul of the pre-diluted CCK-8 was then introduced into each well and the plates were then further incubated in 37° C., 5% CO2 humidified incubator for 3 hours. The absorbance was read by Envision at 450 nm. Dose response curves were calculated as in the previous section (n=2). The CC50 is estimated as the concentration of the compound which will inhibit 50% of the signal. A positive control (puromycin) was used to ensure the quality of the data.

[4] = Bulk-state stability and thermal conversion of crystalline forms; type: physicochemical; settings: heated at approximate 142° C.
[5] = Liver S9 stability determination; type: in vitro ADME; settings: human liver S9 fraction, 1 μM compound, 37° C., up to 120 mins, read-out: liver S9 t1/2
Source text: The liver is the main organ of metabolism and contains a high concentration of drug metabolizing enzymes. Metabolic clearance, particularly hepatic, is one of the main determinants affecting systemic drug exposure following both oral and i.v. administration. To assess the ability of the compounds of the invention to reach a systemic circulation, the hepatic S9 fraction was chosen to test for stability of the compounds. Hepatic S9 fraction was obtained following centrifugation of homogenized liver tissue at 9,000 g. The hepatic S9 fraction is composed of both microsomal and cytosolic fractions and contains all the enzymes contained in microsomes plus additional phase I and phase II cytosolic enzymes.
Stock solutions of each tested compound (100 μM) were prepared in methanol by two subsequent 1:10 dilutions from 10 mM DMSO drug solutions, the final assay concentration was 1 μM. Frozen pooled liver S9 fraction was thawed from −20° C. and diluted in phosphate buffer (with and without NADPH) which was pre-warmed at 37° C. for 10 minutes. The reaction was initiated by addition of compound. Manual sample plates were incubated on a Thermo Max Q 2000 shaker placed in a temperature controlled Sartorius Certomat H hood set at 37° C. Sequential samples were removed at designated timepoints (0, 5, 15, 30, 60 and 120 mins) and quenched with 4 volumes of ice cold acetonitrile (containing internal standard, diazepam), centrifuged and supernatants reconstituted in water (acetonitrile:water, 50:50% v/v). Samples were then analyzed by LCMS/MS or LC-UV to assess parent depletion. In vitro half-life (t1/2) is calculated based on the rate of disappearance of compound from the reaction mixture at incubation timepoints up to 2 hours.

[6] = Stability in liver microsomes; type: in vitro ADME; settings: human, read-out: liver microsomes t1/2

COC(=O)[C@H](C)N[P@@]1(=O)OC[C@H]2O[C@@H](n3cnc4c(OC(C)C)nc(N)nc43)[C@](C)(F)[C@@H]2O1 [Example 12, (S)-methyl 2-(((2R,4aR,6R,7R,7aR)-6-(2-amino-6-isopropoxy-9H-purin-9-yl)-7-fluoro-7-methyl-2-oxidotetrahydro-4H-furo[3,2-d][1,3,2]dioxaphosphinin-2-yl)amino)propanoate]
EC50 [1]: 0.43 µM | CC50 at 96 h [2]: > 50 µM | CC50 at 96 h [3]: > 50 µM

CCOC(=O)[C@H](C)N[P@@]1(=O)OC[C@H]2O[C@@H](n3cnc4c(N)nc(N)nc43)[C@](C)(F)[C@@H]2O1 [Comparative Example 1, (S)-Ethyl 2-(((2R,4aR,6R,7R,7aR)-6-(2,6-diamino-9H-purin-9-yl)-7-fluoro-7-methyl-2-oxidotetrahydro-4H-furo[3,2-d][1,3,2]dioxaphosphinin-2-yl)amino)propanoate, reference compound]
EC50 [1]: > 25 µM

CCOC(=O)[C@H](C)N[P@@]1(=O)OC[C@H]2O[C@@H](n3cnc4c(OCC)nc(N)nc43)[C@](C)(F)[C@@H]2O1 [Form III, (S)-ethyl 2-(((2R,4aR,6R,7R,7aR)-6-(2-amino-6-ethoxy-9H-purin-9-yl)-7-fluoro-7-methyl-2-oxidotetrahydro-4H-furo[3,2-d][1,3,2]dioxaphosphinin-2-yl)amino)propanoate]
form conversion on heating [4]: converts to Form II crystalline form

CCCOc1nc(N)nc2c1ncn2[C@@H]1O[C@@H]2CO[P@](=O)(N[C@@H](C)C(=O)OC)O[C@H]2[C@@]1(C)F [Example 14, (S)-methyl 2-(((2R,4aR,6R,7R,7aR)-6-(2-amino-6-propoxy-9H-purin-9-yl)-7-fluoro-7-methyl-2-oxidotetrahydro-4H-furo[3,2-d][1,3,2]dioxaphosphinin-2-yl)amino)propanoate]
EC50 [1]: 0.18 µM | CC50 at 96 h [2]: > 50 µM | CC50 at 96 h [3]: > 50 µM

CCOC(=O)[C@@H](N[P@]1(=O)OC[C@H]2O[C@@H](n3cnc4c(OCC)nc(N)nc43)[C@](C)(F)[C@@H]2O1)C(C)C [Example 11, (S)-ethyl 2-(((2S,4aR,6R,7R,7aR)-6-(2-amino-6-ethoxy-9H-purin-9-yl)-7-fluoro-7-methyl-2-oxidotetrahydro-4H-furo[3,2-d][1,3,2]dioxaphosphinin-2-yl)amino)-3-methylbutanoate]
EC50 [1]: 0.23 µM | half-life at 1 μM ([5]; pooled liver S9 fraction): 82 min | CC50 at 96 h [2]: > 50 µM | CC50 at 96 h [3]: > 50 µM

CCOC(=O)[C@H](C)N[P@@]1(=O)OC[C@H]2O[C@@H](n3ccc(=O)[nH]c3=O)[C@](C)(F)[C@@H]2O1 [Comparative Example 2, (S)-ethyl 2-(((2R,4aR,6R,7R,7aR)-6-(2,4-dioxo-3,4-dihydropyrimidin-1(2H)-yl)-7-fluoro-7-methyl-2-oxidotetrahydro-4H-furo[3,2-d][1,3,2]dioxaphosphinin-2-yl)amino)propanoate, reference compound]
EC50 [1]: > 25 µM

CCOc1nc(N)nc2c1ncn2[C@@H]1O[C@@H]2CO[P@@](=O)(OC(C)C)O[C@H]2[C@@]1(C)F [Comparative Example 3, (2S,4aR,6R,7R,7aR)-6-(2-amino-6-ethoxy-9H-purin-9-yl)-7-fluoro-2-isopropoxy-7-methyltetrahydro-4H-furo[3,2-d][1,3,2]dioxaphosphinine 2-oxide, reference compound]
EC50 [1]: > 25 µM

CCOc1nc(N)nc2c1ncn2[C@@H]1O[C@@H]2CO[P@](=O)(NCC(=O)OC(C)C)O[C@H]2[C@@]1(C)F [Example 8, isopropyl 2-(((2R,4aR,6R,7R,7aR)-6-(2-amino-6-ethoxy-9H-purin-9-yl)-7-fluoro-7-methyl-2-oxidotetrahydro-4H-furo[3,2-d][1,3,2]dioxaphosphinin-2-yl)amino)acetate]
EC50 [1]: 0.33 µM | half-life at 1 μM ([5]; pooled liver S9 fraction): 57.5 min | CC50 at 96 h [2]: > 50 µM | CC50 at 96 h [3]: > 50 µM

COc1nc(N)nc2c1ncn2[C@@H]1O[C@H](CO[P@@](=O)(N[C@@H](C)C(=O)OC(C)C)Oc2ccccc2)[C@@H](O)[C@@]1(C)F [Comparative Example 4, (S)-isopropyl 2-(((S)-(((2R,3R,4R,5R)-5-(2-amino-6-methoxy-9H-purin-9-yl)-4-fluoro-3-hydroxy-4-methyltetrahydrofuran-2-yl)methoxy) (phenoxy)phosphoryl)amino)propanoate, reference compound]
half-life at 1 μM [5]: 18 min | half-life [6]: 6 min
